Experiments:
[1] = molecular target: Cyclin-dependent kinase 16 (Homo sapiens) (UniProt Q00536); experiment: Selectivity interaction (KinomeScan (DiscoverX)) EUB0000695a CDK16; settings: at 100 nM
[2] = molecular target: Mast/stem cell growth factor receptor Kit (Homo sapiens, UniProt P10721); experiment: Selectivity interaction (KinomeScan (DiscoverX)) EUB0000695a KIT; settings: at 100 nM
[3] = molecular target: Cyclin-dependent kinase 5 (Homo sapiens, UniProt Q00535); experiment: Selectivity interaction (KinomeScan (DiscoverX)) EUB0001079a CDK5; settings: at 1 µM
Sequence of Cyclin-dependent kinase 5 (Q00535 whole entry, looked up): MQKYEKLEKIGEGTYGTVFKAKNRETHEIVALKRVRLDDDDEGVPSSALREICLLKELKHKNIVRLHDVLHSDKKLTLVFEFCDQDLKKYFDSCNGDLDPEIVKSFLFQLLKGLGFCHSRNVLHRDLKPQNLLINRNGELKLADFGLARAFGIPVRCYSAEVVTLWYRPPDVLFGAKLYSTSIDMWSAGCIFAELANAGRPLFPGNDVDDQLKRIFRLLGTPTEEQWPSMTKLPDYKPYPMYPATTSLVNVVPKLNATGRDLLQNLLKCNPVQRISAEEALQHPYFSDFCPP

[4] = molecular target: T1, Non-receptor tyrosine-protein kinase TNK1 (Homo sapiens) (UniProt Q13470); experiment: Selectivity interaction (KinomeScan (DiscoverX)) EUB0001049a TNK1; settings: at 1 µM
T1 sequence (whole entry): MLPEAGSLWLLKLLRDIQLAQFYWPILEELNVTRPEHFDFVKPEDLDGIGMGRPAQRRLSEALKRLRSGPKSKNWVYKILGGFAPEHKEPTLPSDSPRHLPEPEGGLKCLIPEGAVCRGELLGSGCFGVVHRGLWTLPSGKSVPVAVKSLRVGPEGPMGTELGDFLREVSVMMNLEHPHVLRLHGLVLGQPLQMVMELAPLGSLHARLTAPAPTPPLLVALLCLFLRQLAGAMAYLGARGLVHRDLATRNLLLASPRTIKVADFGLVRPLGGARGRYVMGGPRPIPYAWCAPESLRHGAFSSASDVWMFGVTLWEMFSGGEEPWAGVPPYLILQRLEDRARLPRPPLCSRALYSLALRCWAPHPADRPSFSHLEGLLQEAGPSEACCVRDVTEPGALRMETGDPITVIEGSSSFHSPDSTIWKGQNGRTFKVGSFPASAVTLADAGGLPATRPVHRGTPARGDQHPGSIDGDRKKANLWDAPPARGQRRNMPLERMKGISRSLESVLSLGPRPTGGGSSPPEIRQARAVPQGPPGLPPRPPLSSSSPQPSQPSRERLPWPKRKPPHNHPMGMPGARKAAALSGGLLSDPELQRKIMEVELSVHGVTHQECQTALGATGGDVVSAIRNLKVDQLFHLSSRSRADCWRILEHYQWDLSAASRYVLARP

[5] = molecular target: Sodium-dependent noradrenaline transporter (Homo sapiens, UniProt P23975); experiment: Selectivity interaction (Panel of kinases, GPCRs, ion channels and transporters (enzymatic assay)) EUB0000223bCl SLC6A2
Sequence of Sodium-dependent noradrenaline transporter (P23975 whole entry): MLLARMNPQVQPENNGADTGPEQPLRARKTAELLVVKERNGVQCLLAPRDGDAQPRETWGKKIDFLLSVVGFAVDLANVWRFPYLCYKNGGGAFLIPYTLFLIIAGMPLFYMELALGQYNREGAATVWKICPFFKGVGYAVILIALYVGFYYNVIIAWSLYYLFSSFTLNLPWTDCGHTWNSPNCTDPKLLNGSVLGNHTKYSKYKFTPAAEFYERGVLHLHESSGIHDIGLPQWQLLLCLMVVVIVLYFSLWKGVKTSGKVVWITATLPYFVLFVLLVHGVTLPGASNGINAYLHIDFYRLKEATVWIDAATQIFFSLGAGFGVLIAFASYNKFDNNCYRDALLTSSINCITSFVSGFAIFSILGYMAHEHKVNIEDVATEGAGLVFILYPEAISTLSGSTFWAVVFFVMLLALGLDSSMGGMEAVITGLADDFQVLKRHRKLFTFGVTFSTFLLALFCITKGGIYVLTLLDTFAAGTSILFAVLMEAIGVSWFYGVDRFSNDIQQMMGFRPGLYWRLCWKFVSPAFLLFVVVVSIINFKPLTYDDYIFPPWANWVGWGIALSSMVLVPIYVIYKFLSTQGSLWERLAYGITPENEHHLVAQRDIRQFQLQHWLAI

[6] = molecular target: T2, Muscle, skeletal receptor tyrosine-protein kinase (Homo sapiens) (UniProt O15146); experiment: Selectivity interaction (SelectScreen profiling (Invitrogen)) EUB0000607a MUSK; settings: at 2 µM
T2 sequence (whole entry): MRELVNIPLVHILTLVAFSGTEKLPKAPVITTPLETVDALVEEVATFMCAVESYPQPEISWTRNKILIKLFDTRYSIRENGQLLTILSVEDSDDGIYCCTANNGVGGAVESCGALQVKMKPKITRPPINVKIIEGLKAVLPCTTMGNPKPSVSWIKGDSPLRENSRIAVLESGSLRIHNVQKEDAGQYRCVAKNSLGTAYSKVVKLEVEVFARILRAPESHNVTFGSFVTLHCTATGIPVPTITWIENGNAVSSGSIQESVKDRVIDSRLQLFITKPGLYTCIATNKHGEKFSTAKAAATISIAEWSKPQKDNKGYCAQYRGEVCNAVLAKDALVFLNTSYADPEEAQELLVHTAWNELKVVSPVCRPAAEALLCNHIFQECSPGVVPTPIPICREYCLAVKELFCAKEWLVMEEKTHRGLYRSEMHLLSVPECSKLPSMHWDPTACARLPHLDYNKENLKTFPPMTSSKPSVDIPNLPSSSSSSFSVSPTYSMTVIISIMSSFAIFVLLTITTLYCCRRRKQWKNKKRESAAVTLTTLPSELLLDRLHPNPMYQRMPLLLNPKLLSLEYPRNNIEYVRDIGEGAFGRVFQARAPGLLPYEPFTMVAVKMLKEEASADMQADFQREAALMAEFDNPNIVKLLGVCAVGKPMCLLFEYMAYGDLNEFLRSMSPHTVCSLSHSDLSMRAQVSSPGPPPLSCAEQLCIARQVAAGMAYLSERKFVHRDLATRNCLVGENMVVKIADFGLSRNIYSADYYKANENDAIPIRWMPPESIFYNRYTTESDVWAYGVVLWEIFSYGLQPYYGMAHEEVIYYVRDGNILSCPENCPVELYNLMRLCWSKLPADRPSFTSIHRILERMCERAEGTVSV

[7] = molecular target: T3, Serine/threonine-protein kinase ULK1 (Homo sapiens) (UniProt O75385); experiment: Selectivity interaction (ActivX KiNativ screen (kinase selectivity in THP-1 cell lysates)) EUB0000639a ULK1; assay type: subcellular; settings: lysate, at 0.01 µM
T3 sequence (whole entry): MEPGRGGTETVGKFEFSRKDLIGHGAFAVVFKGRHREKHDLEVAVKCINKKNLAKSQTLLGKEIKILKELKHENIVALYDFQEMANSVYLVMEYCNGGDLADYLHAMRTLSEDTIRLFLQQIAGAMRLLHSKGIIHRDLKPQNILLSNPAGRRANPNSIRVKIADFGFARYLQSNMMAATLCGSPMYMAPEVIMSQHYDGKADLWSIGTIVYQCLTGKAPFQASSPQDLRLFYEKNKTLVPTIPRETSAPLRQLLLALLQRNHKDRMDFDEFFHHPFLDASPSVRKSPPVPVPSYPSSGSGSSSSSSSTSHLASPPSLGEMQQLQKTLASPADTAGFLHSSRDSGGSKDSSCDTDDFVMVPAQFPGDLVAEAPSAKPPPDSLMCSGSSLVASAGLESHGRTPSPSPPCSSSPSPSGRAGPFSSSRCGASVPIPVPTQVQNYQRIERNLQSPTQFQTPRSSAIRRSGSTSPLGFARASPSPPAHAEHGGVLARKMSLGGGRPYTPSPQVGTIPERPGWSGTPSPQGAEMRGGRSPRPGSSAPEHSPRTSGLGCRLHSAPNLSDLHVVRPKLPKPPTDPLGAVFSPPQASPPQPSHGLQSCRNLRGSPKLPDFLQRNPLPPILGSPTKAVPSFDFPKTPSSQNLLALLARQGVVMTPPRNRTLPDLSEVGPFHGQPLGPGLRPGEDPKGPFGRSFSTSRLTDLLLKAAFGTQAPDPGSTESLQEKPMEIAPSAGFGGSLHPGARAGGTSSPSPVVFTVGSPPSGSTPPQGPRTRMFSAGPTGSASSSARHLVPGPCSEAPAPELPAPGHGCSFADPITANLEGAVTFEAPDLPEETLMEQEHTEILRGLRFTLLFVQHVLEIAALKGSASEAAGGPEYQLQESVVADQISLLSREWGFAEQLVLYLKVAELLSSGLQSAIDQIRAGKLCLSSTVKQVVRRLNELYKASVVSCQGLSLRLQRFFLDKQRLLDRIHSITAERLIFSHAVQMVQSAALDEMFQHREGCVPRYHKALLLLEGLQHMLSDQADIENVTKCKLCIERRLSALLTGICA

[8] = molecular target: Serine/threonine-protein kinase SIK1 (Homo sapiens) (UniProt P57059); settings: at 10 µM
Sequence of Serine/threonine-protein kinase SIK1 (Homo sapiens) (P57059 whole entry): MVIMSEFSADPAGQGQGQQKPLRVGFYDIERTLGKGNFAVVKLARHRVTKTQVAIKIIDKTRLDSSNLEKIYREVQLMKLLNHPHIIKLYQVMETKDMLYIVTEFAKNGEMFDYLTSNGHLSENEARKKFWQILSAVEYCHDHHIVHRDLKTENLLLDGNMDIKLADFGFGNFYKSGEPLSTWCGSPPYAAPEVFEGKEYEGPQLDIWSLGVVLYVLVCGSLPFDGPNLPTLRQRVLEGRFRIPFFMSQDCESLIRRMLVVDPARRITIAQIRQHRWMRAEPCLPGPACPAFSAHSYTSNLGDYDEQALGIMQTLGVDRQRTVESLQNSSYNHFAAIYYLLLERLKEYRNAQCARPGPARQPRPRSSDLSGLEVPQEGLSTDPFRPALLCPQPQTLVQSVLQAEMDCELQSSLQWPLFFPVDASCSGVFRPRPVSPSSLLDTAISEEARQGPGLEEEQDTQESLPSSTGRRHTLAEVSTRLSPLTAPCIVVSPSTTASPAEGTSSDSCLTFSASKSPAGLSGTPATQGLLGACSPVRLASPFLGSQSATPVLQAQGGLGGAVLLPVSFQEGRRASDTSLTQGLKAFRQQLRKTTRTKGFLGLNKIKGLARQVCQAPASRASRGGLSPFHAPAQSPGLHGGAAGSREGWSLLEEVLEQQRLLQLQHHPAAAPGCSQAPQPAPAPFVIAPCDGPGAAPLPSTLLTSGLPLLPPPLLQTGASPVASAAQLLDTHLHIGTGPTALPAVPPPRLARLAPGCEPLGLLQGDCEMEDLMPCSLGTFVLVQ

Sequence of Mast/stem cell growth factor receptor Kit (P10721 whole entry): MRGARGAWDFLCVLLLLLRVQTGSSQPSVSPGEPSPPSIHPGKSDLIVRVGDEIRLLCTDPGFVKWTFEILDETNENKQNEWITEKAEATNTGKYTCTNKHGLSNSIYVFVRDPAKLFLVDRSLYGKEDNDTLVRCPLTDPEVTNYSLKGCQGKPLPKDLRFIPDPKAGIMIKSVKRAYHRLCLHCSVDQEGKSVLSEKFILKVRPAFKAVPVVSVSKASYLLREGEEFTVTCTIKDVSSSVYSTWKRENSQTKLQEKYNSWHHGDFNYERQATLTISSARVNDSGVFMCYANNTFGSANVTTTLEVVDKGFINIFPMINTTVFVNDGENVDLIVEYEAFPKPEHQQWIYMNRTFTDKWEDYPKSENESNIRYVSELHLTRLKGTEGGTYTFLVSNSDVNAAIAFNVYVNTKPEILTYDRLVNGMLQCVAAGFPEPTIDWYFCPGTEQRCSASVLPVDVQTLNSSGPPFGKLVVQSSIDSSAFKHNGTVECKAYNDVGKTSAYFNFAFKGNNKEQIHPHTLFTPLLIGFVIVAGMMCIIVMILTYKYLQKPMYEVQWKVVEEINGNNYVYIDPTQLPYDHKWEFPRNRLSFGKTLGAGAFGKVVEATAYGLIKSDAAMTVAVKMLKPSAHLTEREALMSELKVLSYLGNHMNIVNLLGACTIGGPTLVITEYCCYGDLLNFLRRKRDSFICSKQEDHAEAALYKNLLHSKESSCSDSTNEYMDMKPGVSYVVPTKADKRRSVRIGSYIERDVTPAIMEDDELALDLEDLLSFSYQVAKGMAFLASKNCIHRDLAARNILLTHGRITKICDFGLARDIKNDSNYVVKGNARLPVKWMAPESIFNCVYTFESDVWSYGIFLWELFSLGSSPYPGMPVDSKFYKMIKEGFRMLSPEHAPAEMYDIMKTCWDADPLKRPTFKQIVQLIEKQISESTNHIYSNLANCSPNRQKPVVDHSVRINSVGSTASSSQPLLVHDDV
Sequence of Cyclin-dependent kinase 16 (Homo sapiens) (Q00536 whole entry): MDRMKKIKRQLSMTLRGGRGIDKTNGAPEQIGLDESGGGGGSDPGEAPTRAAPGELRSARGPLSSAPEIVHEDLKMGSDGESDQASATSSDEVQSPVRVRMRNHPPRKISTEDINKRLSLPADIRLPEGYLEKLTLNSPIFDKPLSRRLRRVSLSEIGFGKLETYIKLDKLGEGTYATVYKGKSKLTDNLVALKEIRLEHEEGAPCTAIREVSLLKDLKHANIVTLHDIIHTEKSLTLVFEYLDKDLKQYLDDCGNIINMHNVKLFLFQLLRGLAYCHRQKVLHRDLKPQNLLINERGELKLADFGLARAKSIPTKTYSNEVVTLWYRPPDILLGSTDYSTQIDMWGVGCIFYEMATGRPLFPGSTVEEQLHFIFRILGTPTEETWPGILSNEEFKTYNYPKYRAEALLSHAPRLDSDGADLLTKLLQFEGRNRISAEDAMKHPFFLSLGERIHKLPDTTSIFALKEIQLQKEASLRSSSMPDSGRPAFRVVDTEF

Cc1cc(F)c(C(=O)Nc2cccc(-c3nncn3C(C)C)n2)cc1-n1cnc(C2CC2)c1
% of control [1]: 75% | % of control [2]: 100%

Nc1cnc(N2CCc3cc(S(=O)(=O)Nc4c(F)cc(Cl)cc4F)cc(N4CCCC4=O)c32)nc1 [TP-020n]
% of control [3]: 100%

COc1cc(Nc2nc(C)cc(-c3cnn4nc(OC)ccc34)n2)cc(C(F)(F)F)c1
% of control [4]: 80%

COc1cc(C(=O)N2CC[C@@H](O)[C@@H](N)C2)cc2nc(-c3cc4ccccc4n3CC3CC3)n(C)c12
pXC50 [5]: 4.7 M

CNC(=O)Nc1ccc(-c2nc(N3CC4CCC(C3)O4)c3cnn(C4CCC5(CC4)OCCO5)c3n2)cc1
% of inhibition [6]: 15%

CC[C@@H]1[C@H](F)C(=O)N[C@@H]1COc1nccc2cc(C(N)=O)c(OC)cc12 [ZIMLOVISERTIB]
% of inhibition [7]: -5.9%

CCN(CC)CCCCNc1ncc2cc(-c3cc(OC)cc(OC)c3)c(NC(=O)NC(C)(C)C)nc2n1
% of control [8]: 100%
